Source: article PMC7324975 (BMC Cancer, 2020)

Assays:
[1] = system: CT26 cells; experiment: WST1 cell viability assay; assay type: cell-based, mice; conditions: 24 h; for anti-tumor efficacy (cell viability), single use: C: 0 ~ 160 μM, R: 12.5 ~ 200 μM; for IC50: Mus musculus, WST1
Description: The mice colon cancer cell line, CT26, was provided by Johnpro Biotech (Taipei, Taiwan). The cells were maintained in ATCC-formulated RPMI-1640 Medium containing 10% heat-inactivated fetal bovine serum (FBS) and 1% antibiotic-antimycotic (GM) in a humidified incubator with 5% CO2 at 37 °C. […] The cell viability was determined through WST1 assay (Roche, Germany) after the 24-h treatment.

[2] = system: Caspase-3; experiment: Western blot of Caspase-3 cleavage form; assay type: cell-based, mice; conditions: CT26 cells, 3 h, single agents
Description: The CT26 cell lysates from the variety of the treatments were prepared using RIPA lysis buffer for immunoblotting of Cyclin D1 (Cell Signaling Technology, #92G2), Cyclin A (Santa Cruz Biotechnology, #sc-271,645), Hsp70 (Santa Cruz Biotechnology, #SC24), Caspase-3, and cleavage form of Caspase-3 (Cell Signaling Technology, #9662S). Western blot analysis was performed as previously reported.

IC50 [1] [µM] | SMILES | anti-tumor efficacy (cell viability), single use [1] | cleavage form of Caspase-3 [2]
26.8 ± 1.06 | COc1cc(/C=C/C(=O)CC(=O)/C=C/c2ccc(O)c(OC)c2)ccc1O [Curcumin, curcumin] | dose-dependent | increased
88.8 ± 1.07 | Oc1ccc(/C=C/c2cc(O)cc(O)c2)cc1 [Resveratrol, resveratrol] | dose-dependent | increased
